A word on the pKi: it is −log10 of the Ki, conventionally taken in molar units. What is called pIC50 is the negative decadic logarithm of the IC50, by convention in mol/L.

pIC50, pKi: −log10 of the molar value. Where a SMILES comes first, the peptide text is derived from it. The star is where a group is joined. Cbz = O=C(OCc1ccccc1)*

The record followed here is patent US6465433B1, “Boronic ester and acid compounds, synthesis and uses” (Millennium Pharmaceuticals, Inc., priority 1994, dated 2002).

The target of experiment [1] is SDS-activated 20S proteasome from rabbit muscle (Oryctolagus cuniculus, UniProt G1SU71+G1T4Q9). In words: Kinetic assay: inhibition of the 20S proteasome. The format is biochemical. How it is done: (§1) P, AA^1, AA^2, AA^3, and Z^1 and Z^2 represent the structures present on formula (1) or (2). The protocol for the kinetic assay described in Tables II-V is as described in Rock et al., Cell 78:761-771 (1994). In these tables, Ki values are reported, which are dissociation constants for the equilibrium that is established when enzyme and inhibitor interact to form the enzyme:inhibitor complex. The reactions were performed using SDS-activated 20S proteasome from rabbit muscle. The substrate used was Suc-LLVY-AMC.

The target in the next experiment is Cathepsin B (Homo sapiens, UniProt P07858). In words: Kinetic assay: inhibition of Cathepsin B. The note with it: Table IV. In kind it is biochemical.
Text: [Worded in the source for another target; this target is reported under the same test.] as §1, with “Table II summarizes results from kinetic experiments that measured the inhibition of the 20S proteasome by compounds having the formula of compound (1) or (2). P,” for “P,”

In a further experiment the test system is C2C12 cells. In words: Inhibition of protein degradation in C2C12 cells. The note with it: 35S-methionine labelled cells, percent decrease in TCA soluble radioactivity, media with 50% serum. The format is cell-based, mouse. On the procedure:
One approach to testing drug candidates for their ability to inhibit the ATP-ubiquitin-dependent degradative process is to measure proteolysis in cultured cells (Rock, et al., Cell 78:761 (1994)). For example, the degradation of long-lived intracellular proteins can be measured in mouse C2C12 myoblast cells. Cells are incubated with ^35S-methionine for 48 hours to label long-lived proteins and then chased for 2 hours with medium containing unlabeled methionine. After the chase period, the cells are incubated for 4 hours in the presence or absence of the test compound. The amount of protein degradation in the cell can be measured by quantitating the trichloroacetic acid soluble radioactivity released from the pre-labeled proteins into the growth medium (an indicator of intracellular proteolysis).
C2C12 cells (a mouse myoblast line) were labelled for 48 hrs with ^35S-methionine. The cells were then washed and preincubated for 2 hrs in the same media supplemented with 2 mM unlabelled methionine. The media was removed and replaced with a fresh aliquot of the preincubation media containing 50% serum, and a concentration of the compound to be tested. The media was then removed and made up to 10% TCA and centrifuged. The TCA soluble radioactivity was counted. Inhibition of proteolysis was calculated as the percent decrease in TCA soluble radioactivity.

In a further experiment the test system is mice. In words: DTH response (contact sensitivity, ear swelling) in mice. Conditions: oral, dose 3 mg/kg, ear swelling approximately 18 hours after challenge. In kind it is in vivo, mouse. From the text: Compounds can also be tested for their ability to inhibit a delayed-type hypersensitivity response in mice. Contact hypersensitivity is a manifestation of an in vivo T-cell mediated immune response (Friedmann, Curr. Opinion Immunology, 1:690693 (1989)). Although the exact molecular mechanisms that regulate the cellular interactions and vascular changes involved in the response remain obscure, it is clear that the process is dependent upon the interplay of soluble mediators, adhesion molecules, and the cytokine network (Piguet, et al., J. Exp. Med. 173:673-679 (1991); Nickoloff, et al. J. Invest. Dermatol. 94:151S-157S (1990)). NF-κB, by mediating events such as the production of cytokines and the induction and utilization of cell-surface adhesion molecules, is a central and coordinating regulator involved in immune responses.
Naive nice were sensitized by the application of 20 μL of a 0.5% (v/v) solution of 2,4-dinitrofluorobenzene in 4:1 acetone/olive oil to both of the rear limb footpads. This procedure is performed on two consecutive days, which are referred to as days 0 and 1.
The efferent phase of the contact sensitivity response was elicited on day 5 by the application of 10 μL of a 0.2% (v/v) solution of 2,4-dinitrofluorobenzene in 4:1 acetone/olive oil to both sides of the left ear. The contralateral control ear was treated on both sides with 10 μL of vehicle only. The mice were lightly anaesthetized for this procedure by the intraperitoneal (i.p.) injection of a mixture of ketamine.(80 mg/kg, Henry Schein) and xylazine (16 mg/kg, Henry Schein). […]
Approximately 18 hours after the challenge, ear swelling was determined by measuring both the control and the experimental ear using a Mitutoyo Digital micrometer. The absolute difference in thickness of the experimental (left) ears vs. the control (right) ears was determined for each treatment group. Efficacy was determined by comparing this difference in thickness to the difference calculated for the vehicle control group.

The mark [2] stands for this setting: Table II, SDS-activated 20S proteasome from rabbit muscle, substrate Suc-LLVY-AMC.

`CC(C)CC(C=O)NC(=O)C(CC(C)C)NC(=O)C(Cc1c[nH]c2ccccc12)NC(=O)OCc1ccccc1` (stereo not drawn) [MG-191, reference compound] (Cbz-Trp-Leu-Leu-aldehyde; configuration not given here): the pKi is 9.42 in experiment [1] (Table IV) and 9.27 on Cathepsin B.
The molecule `CC(C)C[C@H](NC(=O)[C@H](Cc1ccccc1)NC(=O)c1cnccn1)B(O)O` [MG-341, N-(2-pyrazine)carbonyl-L-phenylalanine-L-leucine boronic acid] gave a pKi at Cathepsin B of 3.80. Moreover, in the experiment with C2C12 cells (Mus musculus, C2C12), the pIC50 was 7.16. Further, the “% Inhibition of the DTH response” value with mice is 90%.
Take `CC(C)C[C@H](NC(=O)[C@H](Cc1ccccc1)NC(=O)NCc1ccccc1)B(O)O` [MG-350]: in experiment [1] (setting [2]), the pKi was 9.85. The negative-log IC50 (pIC50) in the experiment with C2C12 cells was 6.80.
In the same order, the values of `CC(C)C[C@H](NC(=O)[C@H](Cc1cccc2ccccc12)NC(=O)OCc1ccccc1)B(O)O` [MG-270] are 10.08 and 6.14.
`CC(C)C[C@H](NC(=O)[C@H](Cc1ccc2ccccc2n1)NC(=O)N1CCOCC1)B(O)O` [MG-315, N-(4-Morpholine)carbonyl-β-(2-quinolyl)-L-alanine-L-leucine Boronic Acid]: in experiment [1] (setting [2]), the negative logarithm of the Ki (pKi) was 8.66. Also, in the experiment on C2C12 cells (Mus musculus, C2C12), the pIC50 is 6.47.
In the case of “β-(1-Naphthyl)-L-alanine-L-leucine Boronic Acid Hydrochloride Salt [MG-302]”, the pKi in experiment [1] (setting [2]) is 8.12. In the experiment with C2C12 cells, the pIC50 is 6.57.
Take `CC(=O)N[C@@H](CC(C)C)C(=O)N[C@@H](CC(C)C)C(=O)N[C@H](C=O)CC(C)C` [MG-154, reference compound] (Ac-Leu-Leu-Leu-aldehyde): the figures for the negative-log Ki (pKi) (in experiment [1] (Table IV); on Cathepsin B) were 7.18 and 8.30, respectively.
Molecule `CC(C)C[C@H](NC(=O)[C@H](CC(C)C)NC(=O)[C@H](CC(C)C)NC(=O)N1CCOCC1)B(O)O` [MG-278] showed a negative-log Ki (pKi) in experiment [1] (setting [2]) of 9.85. Also, in the experiment with C2C12 cells (Mus musculus, C2C12), the negative logarithm of the IC50 (pIC50) was 5.12.
Take `CC(C)C[C@H](NC(=O)[C@H](Cc1c[nH]c2ccccc12)NC(=O)N1CCOCC1)B(O)O` [MG-285]: the negative-log Ki (pKi) in experiment [1] (setting [2]) was 8.52. Further, the negative logarithm of the IC50 (pIC50) with C2C12 cells was 5.62.
Take `O=C(NC(Cc1ccccc1)B(O)O)C(Cc1cccc2ccccc12)NC(=O)N1CCOCC1` (centres unmarked) [MG-321]: the negative-log Ki (pKi) in experiment [1] (setting [2]) is 9.49. Further, the pIC50 with C2C12 cells is 5.62.
Regarding `CC(C)C[C@H](NC(=O)[C@H](Cc1ccccn1)NS(=O)(=O)c1cccc2cccnc12)B(O)O` [MG-347], the pKi in experiment [1] (setting [2]) is 7.54. In addition, the pIC50 in the experiment on C2C12 cells was 4.89.
Turning to `CC(C)C[C@H](NC(=O)[C@H](Cc1ccccc1)NC(=O)c1cccnc1)B(O)O` [MG-336, N-(3-pyridine)carbonyl-L-phenylalanine-L-leucine boronic acid], in experiment [1] (setting [2]), the pKi is 9.60. For the same molecule, the pIC50 in the experiment on C2C12 cells (Mus musculus, C2C12) was 7.00.
Consider `CC(=O)N[C@@H](Cc1cccnc1)C(=O)N[C@@H](CC(C)C)B(O)O` [MG-290], for which the negative logarithm of the Ki (pKi) in experiment [1] (setting [2]) is 8.27. For the same molecule, in the experiment with C2C12 cells, the pIC50 is 4.99.
The molecule `CC(C)C[C@H](NC(=O)[C@H](Cc1cccc2ccccc12)NC(=O)C1CCCCC1)B(O)O` [MG-329] had a negative logarithm of the Ki (pKi) in experiment [1] (setting [2]) of 10.52. Further, the pIC50 in the experiment with C2C12 cells is 7.32.
The like results for `CC(=O)N[C@@H](Cc1c[nH]c2ccccc12)C(=O)N[C@@H](CC(C)C)B(O)O` [MG-301] were, in that order, 8.89 and 5.89.
In the same order, the values of `CC(C)C[C@H](NC(=O)[C@H](Cc1ccccn1)NC(=O)c1ccccc1)B(O)O` [MG-345] are 9.12 and 6.92.
In the same order, the values of `CC(C)C[C@H](NC(=O)[C@H](Cc1ccccn1)NC(=O)N1CCOCC1)B(O)O` [MG-312] are 8.20 and 5.96.
On to `CC(C)C[C@H](NC(=O)[C@H](Cc1ccc(O)cc1)NC(=O)N1CCOCC1)B(O)O` [MG-307, N-(4-morpholine)carbonyl-L-tyrosine-L-leucine boronic acid], for which the pKi in experiment [1] (setting [2]) was 9.29. Moreover, the pIC50 in the experiment on C2C12 cells was 5.32.
In experiment [1] (setting [2]), `CC(C)C[C@H](NC(=O)[C@H](Cc1ccccn1)NC(=O)C1CCCCC1)B(O)O` [MG-346] had a pKi of 8.96. The pIC50 in the experiment with C2C12 cells is 6.82.
In the same order, the values of `CC(C)C[C@H](NC(=O)[C@@H](N)Cc1ccccn1)B(O)O` [MG-351] are 7.49 and 5.09.
Regarding `CC(C)C[C@H](NC(=O)[C@@H]1CCCN1)B(O)O` [MG-319], the negative-log Ki (pKi) in experiment [1] (setting [2]) was 7.70. Also, in the experiment on C2C12 cells (Mus musculus, C2C12), the pIC50 is 4.85.
With `CC(C)C[C@H](NC(=O)[C@H](Cc1cccc2ccccc12)NC(=O)N1CCOCC1)B(O)O` [MG-273, N-(4-Morpholine)carbonyl-β-(1-naphthyl)-L-alanine-L-leucine Boronic Acid], the negative-log Ki (pKi) in experiment [1] (setting [2]) is 9.74; in experiment [1] (Table IV), 9.74; on Cathepsin B it was 3.70. Further, in the experiment on C2C12 cells (Mus musculus, C2C12), the pIC50 was 6.85.
In the case of `CC(C)C[C@H](NC(=O)[C@H](Cc1ccc(OCc2ccccc2)cc1)NC(=O)N1CCOCC1)B(O)O` [MG-306, N-(4-Morpholine)carbonyl-(O-benzyl)-L-tyrosine-L-leucine Boronic Acid], the pKi in experiment [1] (setting [2]) is 9.64. In the experiment with C2C12 cells (Mus musculus, C2C12), the negative-log IC50 (pIC50) is 6.89.
The like results for `CC(C)CC(NC(=O)C(Cc1ccc2ncccc2c1)NC(=O)N1CCOCC1)B(O)O` [MG-292, N-(4-Morpholine)carbonyl-β-(6-quinolinyl)-D, L-alanine-L-leucine Boronic Acid] were, in that order, 8.22 and 4.95.
In the case of `CC(C)C[C@H](NC(=O)[C@H](Cc1ccccc1)NC(=O)c1ccc2ccccc2n1)B(O)O` [MG-314], in experiment [1] (setting [2]), the pKi is 9.72. Further, in the experiment with C2C12 cells, the negative-log IC50 (pIC50) is 6.89.
